Measurements reported in article PMC10828988, “Tuning the Softness of the Pendant Arms and the Polyazamacrocyclic Backbone to Chelate the ^203Pb/^212Pb Theranostic Pair” (Inorganic Chemistry, 2024).
Values joined by “and” are separate entries in the source; they are usually repeats but may differ in a detail not shown here. Equal entries are not always repeated. Where two headings read alike, the source gives them in different places. Marks after values point to notes of the source that are not given here.

Experiments:
[1] = design: method as in PMID 33527221; conditions: cited from earlier work
[2] = design: method as in PMID 35571797, doi:10.1002/ejic.200700819; conditions: state-of-the-art ligands, computed from literature constants; cited from earlier work
[3] = Out-of-cell UV-Vis spectrophotometric titrations (stability constants, pPb); type: physicochemical; conditions: for log β, Pb^2+ + L ⇋ [PbL]: UV–Vis spectrophotometric titrations, I = 0.15 M NaNO3, T = 25 °C; for pPb = −log[Pb^2+]free / pPb* (−log of free Pb^2+ plus hydrolysis products): calculated at CPb^2+ = 10^–6 M, Cligand = 10^–5 M, pH = 7.4
Procedure: The ionic strength (I) was fixed to 0.15 M using sodium nitrate (NaNO3) as background electrolytes. All of the experiments described below were repeated at least in triplicate.
UV–Vis spectrophotometric titrations were carried out by the out-of-cell method in the pH range of 0–12 at T = 25 °C. […] A Mettler Toledo pH meter with a glass electrode was used to measure the pH. […] In highly acidic solutions (pH ≪ 2), the pH was computed from the acid concentration (pH = −logCH^+). After the pH adjustment, the vials were sealed, heated to T = 60 °C to ensure complete Pb^2+ complexation, and cooled to room temperature. The absorption spectra were recorded using the same apparatus described for the kinetic measurements (vide supra). The equilibrium was reached when no variations of the electronica spectra or the pH were detected.
All equilibrium data were processed using the least-squares fitting program PITMAP as described in our previous works.[2],[4],[28] The overall equilibrium constants refer to the general equilibria pM^m+ + qH^+ + rL^l– ⇆ MpHqLr^pm+q–rl, where M^m+ represent the metal ion and L^l– represents the deprotonated ligand, and are designated as logβ (βpqr = [MpLqHr]/[M]^p[L]^q[H]^r). The refinements of log β included the previously determined ligand protonation constants and the Pb^2+ hydrolysis products whose equilibrium constants were fixed to the literature values.[27],[39] […] The errors quoted are the standard deviations of the overall stability constants calculated by the PITMAP program.

[4] = Concentration-dependent radiolabeling with [203Pb]Pb2+ (iTLC); conditions: for RCI of [^203Pb]Pb^2+: after 5 min; for RCI of [^203Pb]Pb^2+ / radiochemical incorporation (RCI) of [^203Pb]Pb^2+ / effect of a change in reaction time on RCI: pH = 7, room temperature; for RCI of [^203Pb]Pb^2+ on heating: T = 80 °C; for effect of a change in reaction time on RCI: 5 min vs 1 h; for radiochemical incorporation of [^203Pb]Pb^2+: room temperature, 5 min reaction time, chelator concentration as low as 10^–5 M
Procedure: Water replaced the ligands in the negative control. All of the radiolabeling for the cyclen-based derivatives was performed at room temperature and monitored at 5 min and 1 h time points whereas heating at T = 80 °C was also employed for TACD3S, TRI4S, and TE4S. All radiolabeling reactions were repeated at least in triplicate.
Radiochemical incorporation (RCI) was determined via instant thin-layer chromatography (iTLC) with silicic acid (SA)-impregnated paper TLC plates (iTLC-SA, Agilent Technologies, USA). Ethylenediamine tetraacetic acid (EDTA, 50 mM, pH = 5.5) was used as the eluent. […] The iTLC plates were analyzed on an Eckert & Ziegler AR-2000 TLC scanner, and all the data were processed with Eckert & Ziegler WinScan software.

[5] = Formation kinetics of Pb2+ complexes (UV-Vis / 1H NMR); type: physicochemical; conditions: for Pb^2+ complex formation: below pH = 4, after 2 weeks at room temperature or prolonged heating, UV-Vis; for time to reach equilibrium of Pb^2+ complexation: pH = 5, equimolar ligand and metal concentrations (10^–4 M), room temperature; for ability to complex Pb^2+: pH < 7, 1H NMR of metal-ligand mixtures
Procedure: The formation kinetics of the Pb^2+ complexes was evaluated at room temperature by UV–Vis or ^1H NMR spectroscopy. A typical experiment was performed by mixing equimolar amounts of metal and ligand solutions (final concentrations: 1.0 × 10^–4 M for UV–Vis, 1.0 × 10^–3 M for ^1H NMR) in buffered media at pH = 2 (HCl 10^–2 M), pH = 3.7 (formic/formiate buffer), pH = 5 (acetic/acetate buffer), and pH = 7.4 (2-[4-(2-hydroxyethyl)piperazin-1-yl]ethanesulfonic acid, i.e., HEPES, buffer). To avoid the formation of PbCO3 (Ks = 7.4 × 10^–14), water was boiled before each measurement.
The electronic spectra were collected in the 200–800 nm range at different time points using a Cary 60 UV–Visible spectrophotometer (Agilent) equipped with a 1 cm path length quartz cell. The complexation reactions were monitored by the increase in the absorption peaks diagnostic of the Pb^2+-ligand complex formation at the characteristic wavelength (Table S2) over time. ^1H NMR spectra were recorded on a 400 MHz Bruker Avance III HD spectrometer. All data were collected […] with Topspin 3.5 using standard Bruker processing parameters with Topspin 4.1.1 software. […] Water suppression was carried out with the excitation sculpting pulse scheme.[38]

[6] = Acid-mediated dissociation kinetics in aqueous HCl (UV-Vis); type: physicochemical; conditions: room temperature
Excerpt: The dissociation kinetics of the Pb^2+ complexes were studied under pseudo-first-order conditions at room temperature without control of the ionic strength by the addition of a concentrated aqueous solution of HCl (0.01 to 1 M) to aqueous solutions of the preformed complexes. The concentration of the Pb^2+ complexes after the H^+ addition was 1.0 × 10^–4 M. The dissociation reaction was followed by the decreasing intensity of the absorption band of the complexes at the characteristic wavelength (Table S2) using the same apparatus described for the formation kinetic measurements (vide supra).
The data were processed and fitted using the equation lnAt = lnA0 – ^dkobst, where At and A0 are the absorbances at time t and at the beginning of the reaction and ^dkobs is the observed dissociation rate constant. The corresponding half-life was obtained from the equation t1/2 = ln(2)/^dkobs.

[7] = Direct in-cell pH-potentiometric titrations; type: physicochemical; conditions: pH-potentiometry, I = 0.15 M NaNO3, T = 25 °C
Procedure: Nitric acid (HNO3) solutions were prepared at ∼10^–1 M by dilution of the concentrated acid (Aristar - VWR Chemicals, 69%) and standardized against sodium carbonate (Aldrich, 99.95–100.5%). Carbonate-free sodium hydroxide (NaOH) solutions were prepared at ∼10^–1 M from commercial pellets (Fluka, 99% min) using freshly boiled ultrapure water and standardized using the previously standardized acid. […] Pb^2+ solutions were preprepared from analytical-grade nitrate salt (Pb(NO3)2, Sigma-Aldrich, 99%) and standardized using complexometric titrations with ethylenediaminetetraacetic acid (EDTA) with xylenole orange as an indicator. The ionic strength (I) was fixed to 0.15 M using sodium nitrate (NaNO3) as background electrolytes. All of the experiments described below were repeated at least in triplicate.
Direct (in-cell) pH-potentiometric titrations were carried out with an automated Metrohm 765 Dosimat titrating system using a Metrohm 713 pH meter. […]
All equilibrium data were processed using the least-squares fitting program PITMAP as described in our previous works.[2],[4],[28] […] The refinements of log β included the previously determined ligand protonation constants and the Pb^2+ hydrolysis products whose equilibrium constants were fixed to the literature values.[27],[39] […] The errors quoted are the standard deviations of the overall stability constants calculated by the PITMAP program.

Compound | log β, Pb^2+ + L ⇋ [PbL] [3] | pPb = −log[Pb^2+]free [3] | pPb* (−log of free Pb^2+ plus hydrolysis products) [3] | radiochemical incorporation (RCI) of [^203Pb]Pb^2+ ([4]; ligand 10^–4 M, 1 h) | radiochemical incorporation (RCI) of [^203Pb]Pb^2+ ([4]; ligand 10^–7 M, 1 h) | time to reach equilibrium of Pb^2+ complexation [5] | RCI of [^203Pb]Pb^2+ on heating ([4]; ligand 10^–4 M) | ability to complex Pb^2+ [5] | effect of a change in reaction time on RCI [4] | further results
O=C(O)CN1CCN(CC(=O)O)CCN(CC(=O)O)CCN(CC(=O)O)CC1 [DOTA, 1,4,7,10-tetraazacyclododecane-1,4,7,10-tetraacetic acid] |  |  |  |  |  |  |  |  |  | RCI of [^203Pb]Pb^2+ ([1]; ligand 10^–4 M): 96 ± 1%; RCI of [^203Pb]Pb^2+ ([1]; ligand 10^–5 M): 76 ± 9%; RCI of [^203Pb]Pb^2+ ([1]; ligand 10^–6 M): 3 ± 1%; RCI of [^203Pb]Pb^2+ ([1]; ligand 10^–7 M): 1.5 ± 0.2%; pPb [2]: 20
CSCCN1CCNCCN(CCSC)CCN(CCSC)CC1 [DO3S, 1,4,7-tris[2-(methylsulfanyl)ethyl]-1,4,7,10-tetraazacyclododecane] | 14.2 ± 0.1 | 11.3 | 11.0 | 88 ± 1% and 88% | 2 ± 1% | 6 h |  |  |  | RCI of [^203Pb]Pb^2+ [4]: 65%; Pb^2+ complex formation [5]: No complex formation was detected
CSCCN1CCCN(CCSC)CCN(CCSC)CCCN(CCSC)CC1 [TE4S, 1,4,8,11-tetrakis[2-(methylsulfanyl)ethyl]-1,4,8,11-tetrazacyclotetradecane] |  |  |  | no radiometal incorporation was observed |  |  | only vaguely improved | not be able to complex Pb^2+ |  | 
CSCCN1CCN(CCSC)CCN(CCSC)CCN(CCSC)CC1 [DO4S, 1,4,7,10-tetrakis[2-(methylsulfanyl)ethyl]-1,4,7,10-tetraazacyclododecane] | 12.3 ± 0.1 | 10.2 | 10.0 | 81 ± 10% and 81% | 1.4 ± 0.4% | 24 h |  |  |  | RCI of [^203Pb]Pb^2+ [4]: 35%; Pb^2+ complex formation [5]: No complex formation was detected; reaction time of Pb^2+ complexation ([5]; pH = 7.4, room temperature): 1 h
1,4,7-tris[2-(methylsulfanyl)ethyl]-10-acetamido-1,4,7,10-tetraazacyclododecane [DO3SAm] | 16.8 ± 0.1 | 14.2 | 13.9 | > 90% | 14 ± 4% | 1 h |  |  | no effect | radiochemical incorporation (RCI) of [^203Pb]Pb^2+ ([4]; ligand 10^–5 M, 1 h): > 90%; radiochemical incorporation (RCI) of [^203Pb]Pb^2+ ([4]; ligand 10^–6 M, 1 h): 68 ± 4%; radiochemical incorporation of [^203Pb]Pb^2+ [4]: quantitative radiochemical incorporation
CSCCN1CCNCCN(CCSC)CCN(CCSC)CC1.[Pb+2] [[Pb(DO3S)]^2+] |  |  |  |  |  |  |  |  |  | t1/2 acid-assisted dissociation ([6]; CHCl 0.01 M): 12 ± 2 min; ^dkobs acid-assisted dissociation ([6]; CHCl 0.1 M): 1.5 ± 0.3 min^–1; t1/2 acid-assisted dissociation ([6]; CHCl 0.1 M): 0.47 ± 0.09 min; t1/2 acid-assisted dissociation ([6]; CHCl 1.0 M): ^b (Instantaneous decomplexation during the reagent mixing time.)
CSCCN1CCCN(CCSC)CCCN(CCSC)CCC1 [TACD3S, 1,5,9-tris[2-(methylsulfanyl)ethyl]-1,5,9-triazacyclododecane] |  |  |  | no radiometal incorporation was observed |  |  | only vaguely improved | not be able to complex Pb^2+ |  | 
CSCCN1CCCN(CCSC)CCN(CCSC)CCN(CCSC)CC1 [TRI4S, 1,4,7,10-tetrakis[2-(methylsulfanyl)ethyl]-1,4,7,10-tetrazacyclotridecane] |  |  |  | no radiometal incorporation was observed |  |  | only vaguely improved | not be able to complex Pb^2+ |  | 
NC(=O)CN1CCN(CC(N)=O)CCN(CC(N)=O)CCN(CC(N)=O)CC1 [TCMC, 1,4,7,10-tetraaza-1,4,7,10-tetra-(2-carbamoylmethyl)-cyclododecane, reference compound] |  |  |  |  | 41 ± 1% |  |  |  | no effect | radiochemical incorporation (RCI) of [^203Pb]Pb^2+ ([4]; ligand concentrations higher than 10^–6 M): quantitative; pPb [2]: > 18
CSCCN1CCN(CC(=O)O)CCN(CCSC)CCN(CC(=O)O)CC1 [DO2A2S, 1,7-bis[2-(methylsulfanyl)ethyl]-1,4,7,10-tetraazacyclododecane-4,10-diacetic acid] | 18.3 ± 0.1 | 15.7 | 15.4 | > 90% | 56 ± 4% | practically instantaneous |  |  | no effect | radiochemical incorporation (RCI) of [^203Pb]Pb^2+ ([4]; ligand 10^–5 M, 1 h): > 90%; radiochemical incorporation (RCI) of [^203Pb]Pb^2+ ([4]; ligand 10^–6 M, 1 h): 68 ± 1%; radiochemical incorporation of [^203Pb]Pb^2+ [4]: quantitative radiochemical incorporation; log β, Pb^2+ + H^+ + L^2– ⇋ [PbHL]^+ [7]: 20.89 ± 0.07 ^c; log β, Pb^2+ + L^2– ⇋ [PbL] [7]: 18.2 ± 0.1
